Data: patent US12139488B2, “Pyrido[3,2-d]pyrimidine compounds uses thereof for treating a proliferative disease” (Universite de Montreal, priority 2021, dated 2024)
Like-named read-outs stand apart in the source and are kept apart here.

Assays:
[1] = system: pERK in HCT-116 cells (KRAS G13D); test: Phospho-ERK inhibition (AlphaLISA SureFire Ultra p-ERK 1/2), HCT116; type: cell-based, human; conditions: HCT116 cells; for HCT116 pERK Ymin %: Ymin in brackets
How it was run: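 Cells plated in RPMI-1640 with 5% FBS, kept overnight at 37° C, then treated 1 h with ten-point dilutions (top usually 10 μM; 0.5% DMSO). Lysate p-ERK1/2 (Thr202/Tyr204) read by AlphaLISA SureFire Ultra. % inhibition set against DMSO after subtracting the trametinib background; IC50 from four-parameter fit.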

BRAF = BRAF (Homo sapiens (Human), UniProt P15056); test: BRAF kinase activity assay (ADP-Glo); type: biochemical; conditions: read-out: Kinase IC50 (nM) BRAF
Chain of BRAF (P15056 whole entry): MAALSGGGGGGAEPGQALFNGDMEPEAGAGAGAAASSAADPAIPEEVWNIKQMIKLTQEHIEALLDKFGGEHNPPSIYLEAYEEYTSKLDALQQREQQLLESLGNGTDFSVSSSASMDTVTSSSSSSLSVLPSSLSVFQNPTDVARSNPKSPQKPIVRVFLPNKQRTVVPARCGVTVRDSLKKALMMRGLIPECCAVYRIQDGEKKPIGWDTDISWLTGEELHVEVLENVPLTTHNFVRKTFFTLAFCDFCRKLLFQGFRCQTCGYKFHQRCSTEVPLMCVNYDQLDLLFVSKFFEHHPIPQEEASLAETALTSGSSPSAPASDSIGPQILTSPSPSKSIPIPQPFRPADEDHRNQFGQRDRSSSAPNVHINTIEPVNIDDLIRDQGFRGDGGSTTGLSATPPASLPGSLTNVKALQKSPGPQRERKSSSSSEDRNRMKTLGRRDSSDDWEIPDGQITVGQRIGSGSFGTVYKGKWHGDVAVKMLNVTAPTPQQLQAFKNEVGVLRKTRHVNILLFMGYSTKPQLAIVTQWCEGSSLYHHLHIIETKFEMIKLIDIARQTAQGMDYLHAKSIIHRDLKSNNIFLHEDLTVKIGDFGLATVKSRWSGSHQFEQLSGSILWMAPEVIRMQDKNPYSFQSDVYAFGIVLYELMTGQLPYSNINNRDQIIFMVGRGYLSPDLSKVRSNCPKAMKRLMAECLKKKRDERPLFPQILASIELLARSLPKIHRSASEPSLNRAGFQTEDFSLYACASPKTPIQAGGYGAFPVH
Experimental: (§1) Compound preparation: solid samples of each substances in 1 dram vials were suspended in DMSO (Fisher Scientific) at a stock concentration of 20 mM. Stocks were kept at −20° C. and protected from light.
(§2) In vitro enzymatic reactions were used for evaluating compounds intrinsic activity against BRAF, CRAF and ARAF. […] Separate reactions were performed with the MEK1 substrate and ATP as a blank control.
(§3) For compound treatment, 5 μL/well of test substance solution are placed in a 384-well proxyplate (Perkin Elmer) and mixed with 2× concentrated kinase reactions. The dilution series is selected so that nine concentrations cover a range from 100 nM to 0.01 nM. […] The final concentration of DMSO in the assay is set at 0.05%.
(§4) BRAF and CRAF kinase reactions were carried out for a total of 2 hours at 30° C. and then stopped by ½ dilution in ADP-Glo Reagent (cat #V9102; Promega; part V912C). Reactions were then incubated for 1h at room temperature before addition of one volume of Kinase Detection Reagent (cat #V9102; Promega; part V917A). Plates were then equilibrated at room temperature for 30 minutes before detection of luminescence on a Synergy Neo2 plate reader (Biotek). The effect of each compound dilution on BRAF and CRAF kinase activity was expressed as % inhibition and calculated as follows.
(§5) IC50 values were obtained by plotting the kinase inhibition values and fitting the dose-activity curves using a log(agonist) versus response-variable slope (four parameters) function using either GraphPadPrism (V7.0) or Dotmatics Screening Ultra platform.

CRAF = CRAF (Homo sapiens, UniProt P04049); test: CRAF kinase activity assay (ADP-Glo); type: biochemical
Chain of CRAF (P04049 whole entry, looked up): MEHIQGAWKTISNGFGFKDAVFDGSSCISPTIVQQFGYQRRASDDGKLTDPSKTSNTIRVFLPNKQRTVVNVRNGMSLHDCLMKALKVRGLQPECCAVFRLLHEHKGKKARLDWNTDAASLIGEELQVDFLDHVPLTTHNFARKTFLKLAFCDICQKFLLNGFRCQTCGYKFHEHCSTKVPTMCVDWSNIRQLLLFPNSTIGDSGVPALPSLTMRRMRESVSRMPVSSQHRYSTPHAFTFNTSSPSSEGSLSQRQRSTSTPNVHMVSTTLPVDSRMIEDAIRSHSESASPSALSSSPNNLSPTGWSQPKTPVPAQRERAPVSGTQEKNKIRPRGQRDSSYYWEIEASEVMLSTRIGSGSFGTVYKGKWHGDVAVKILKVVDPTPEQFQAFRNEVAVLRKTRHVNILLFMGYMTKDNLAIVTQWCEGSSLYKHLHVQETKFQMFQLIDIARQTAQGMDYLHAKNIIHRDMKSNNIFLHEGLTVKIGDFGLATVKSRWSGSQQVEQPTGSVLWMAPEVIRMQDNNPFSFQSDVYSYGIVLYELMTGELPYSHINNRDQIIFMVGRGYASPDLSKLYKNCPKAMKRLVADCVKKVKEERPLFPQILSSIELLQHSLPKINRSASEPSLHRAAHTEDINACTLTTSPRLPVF
Experimental: as §1, §2, §3, §4, §5

[2] = class symbol before the bracket
[3] = read-out: Kinase IC50 (nM) CRAF

Compound	IC50 [1, 2]	IC50 (BRAF)	IC50 (CRAF; [3])	IC50 [1]	HCT116 pERK % Ymin (lowest value of the IC50 curve) ([1]; Ymin above −20% = minimal or no paradoxical activation)	IC50 (CRAF; CRAF, read-out: Kinase IC50 (nM), CRAF biochemical kinase assay)	HCT116 pERK Ymin % [1]
NC(=O)Cc1cn(-c2ccc3ncnc(Nc4c(F)ccc(NS(=O)(=O)c5ccccc5Cl)c4F)c3n2)c2ccccc12 [Ex 90]	1000 to 10000 nM	1 to 10 nM	< 10 nM				−1%
CC(=O)c1cn(-c2ccc3ncnc(Nc4c(F)ccc(NS(=O)(=O)c5ccccc5Cl)c4F)c3n2)c2ccccc12 [Ex 214]	1000 to 10000 nM	1 to 10 nM	> 50 nM				−12%
CNCc1cccc2c1ncn2-c1ccc2ncnc(Nc3c(F)ccc(NS(=O)(=O)c4ccccc4Cl)c3F)c2n1 [Ex 215]	1000 to 10000 nM	1 to 10 nM	10 to 50 nM				−9%
CN(C)Cc1cccc2c1ncn2-c1ccc2ncnc(Nc3c(F)ccc(NS(=O)(=O)c4ccccc4Cl)c3F)c2n1 [Ex 216]	500 to 1000 nM	1 to 10 nM	10 to 50 nM				−8.8%
NCc1cccc2c1ncn2-c1ccc2ncnc(Nc3c(F)ccc(NS(=O)(=O)c4ccccc4Cl)c3F)c2n1 [Ex 217]	1000 to 10000 nM	< 1 nM	< 10 nM				−9%
O=S(=O)(Nc1ccc(F)c(Nc2ncnc3ccc(-n4cnc5c(CN6CCCC6)cccc54)nc23)c1F)c1ccccc1Cl [Ex 219]	1000 to 10000 nM	1 to 10 nM	10 to 50 nM				0%
O=S(=O)(Nc1ccc(F)c(Nc2ncnc3ccc(-n4cnc5c(CN6CC(O)C6)cccc54)nc23)c1F)c1ccccc1Cl [Ex 225]	1000 to 10000 nM	1 to 10 nM	10 to 50 nM				−8%
COC1CN(Cc2cccc3c2ncn3-c2ccc3ncnc(Nc4c(F)ccc(NS(=O)(=O)c5ccccc5Cl)c4F)c3n2)C1 [Ex 226]	1000 to 10000 nM	1 to 10 nM	> 50 nM				−9%
O=S(=O)(Nc1ccc(F)c(Nc2ncnc3ccc(-n4cnc5c(CN6CCC(O)CC6)cccc54)nc23)c1F)c1ccccc1Cl [Ex 229]	1000 to 10000 nM	< 1 nM	10 to 50 nM				−7%
Nc1nc(-c2ccc3ncnc(Nc4c(F)ccc(NS(=O)(=O)c5ccccc5Cl)c4F)c3n2)cs1 [Example 94]	1000 to 10000 nM	> 10 nM	> 50 nM				−5%

The next lines start with results.

IC50 [1, 2]	IC50 (BRAF)	IC50 (CRAF; [3])	IC50 [1]	HCT116 pERK % Ymin (lowest value of the IC50 curve) ([1]; Ymin above −20% = minimal or no paradoxical activation)	IC50 (CRAF; CRAF, read-out: Kinase IC50 (nM), CRAF biochemical kinase assay)	Compound	HCT116 pERK Ymin % [1]
1000 to 10000 nM	1 to 10 nM	10 to 50 nM				CNC(=O)c1cn(-c2ccc3ncnc(Nc4c(F)ccc(NS(=O)(=O)c5ccccc5Cl)c4F)c3n2)c2ccccc12 [Ex 86]	−10%
< 500 nM	< 1 nM	10 to 50 nM				CN(C)C(=O)c1cn(-c2ccc3ncnc(Nc4c(F)ccc(NS(=O)(=O)c5ccccc5Cl)c4F)c3n2)c2ccccc12 [Ex 87]	−4.4%
1000 to 10000 nM	1 to 10 nM	10 to 50 nM				CC(C)NCc1cccc2c1ncn2-c1ccc2ncnc(Nc3c(F)ccc(NS(=O)(=O)c4ccccc4Cl)c3F)c2n1 [Ex 222]	−11%
500 to 1000 nM	1 to 10 nM	10 to 50 nM				CC(=O)Nc1cccc2c1ncn2-c1ccc2ncnc(Nc3c(F)ccc(NS(=O)(=O)c4ccccc4Cl)c3F)c2n1 [Example 85]	2.9%
500 to 1000 nM	< 1 nM	< 10 nM				Cc1c(Cl)cccc1S(=O)(=O)Nc1ccc(F)c(Nc2ncnc3ccc(-n4cnc5c(O)cccc54)nc23)c1F [Example 116]	−18%
500 to 1000 nM	1 to 10 nM	< 10 nM				Cc1c(Cl)cccc1S(=O)(=O)Nc1ccc(F)c(Nc2ncnc3ccc(-n4nnc5c(O)cccc54)nc23)c1F [Example 117]	−12%
			500 to 1000 nM	0%	< 10 nM	O=S1(=O)CCN(c2cccc3c2ncn3-c2ccc3ncnc(Nc4c(F)ccc(NS(=O)(=O)c5cccc(Cl)c5Cl)c4F)c3n2)CC1 [Example 628]	
